Laboratory results as given in patent US7078165B2, “Method for modulating Nod1 activity, use of a MTP related molecule for modulating Nod1 activity, and therapeutic applications thereof” (Institut Pasteur, priority 2003, dated 2006).
Blank lines part the entries; values can stand above or below the molecule they belong to.

Experiments:
Nod1 [1] = biological target: T1, Nod1 (Homo sapiens, UniProt Q9Y239); assay: Nod1-dependent NF-κB luciferase activation in Nod1-overexpressing HEK293 cells; assay type: cell-based; set-up: expressed in transfected cells; host or cells: HEK293; conditions: for detection by Nod1: FIG. 8B-8D, additional experiments; for stimulation of the Nod1 pathway (NF-κB activation): LPS, lipid A, lipoproteins preparations at 10 μg/ml (FIG. 1a, 1b); for stimulation of the Nod1 pathway by HPLC fractions of N. meningitidis PGN muropeptides: 1% of the volume of each HPLC fraction (FIG. 2b); for Nod1-dependent activation of NF-κB by muropeptides: 10 ng (FIG. 2d)
T1 sequence (Q9Y239 1-953): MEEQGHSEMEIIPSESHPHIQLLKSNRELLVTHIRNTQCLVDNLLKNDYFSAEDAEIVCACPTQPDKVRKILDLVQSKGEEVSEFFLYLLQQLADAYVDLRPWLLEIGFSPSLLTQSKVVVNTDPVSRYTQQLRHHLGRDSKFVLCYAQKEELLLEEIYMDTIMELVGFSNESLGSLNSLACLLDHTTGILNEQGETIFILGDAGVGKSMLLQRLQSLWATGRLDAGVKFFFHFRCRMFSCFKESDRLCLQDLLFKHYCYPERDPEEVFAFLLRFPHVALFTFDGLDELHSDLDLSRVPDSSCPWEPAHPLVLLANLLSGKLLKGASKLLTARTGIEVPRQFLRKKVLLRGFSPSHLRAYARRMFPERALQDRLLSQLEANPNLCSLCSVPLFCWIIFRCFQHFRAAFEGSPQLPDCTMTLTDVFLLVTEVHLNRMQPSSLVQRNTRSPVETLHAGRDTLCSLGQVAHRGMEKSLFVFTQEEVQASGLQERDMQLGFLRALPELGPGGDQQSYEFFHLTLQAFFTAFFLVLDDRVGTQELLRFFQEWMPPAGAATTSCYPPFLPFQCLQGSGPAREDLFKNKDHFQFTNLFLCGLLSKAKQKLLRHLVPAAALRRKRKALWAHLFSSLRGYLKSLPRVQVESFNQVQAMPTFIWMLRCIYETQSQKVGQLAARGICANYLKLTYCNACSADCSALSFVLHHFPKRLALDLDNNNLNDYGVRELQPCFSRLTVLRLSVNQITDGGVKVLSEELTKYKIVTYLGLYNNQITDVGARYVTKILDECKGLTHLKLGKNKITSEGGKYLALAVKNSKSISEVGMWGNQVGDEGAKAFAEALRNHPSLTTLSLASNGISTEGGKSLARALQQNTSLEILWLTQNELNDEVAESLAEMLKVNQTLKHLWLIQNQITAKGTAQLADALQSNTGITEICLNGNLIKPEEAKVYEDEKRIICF
Description: (§1) Studies examining the activation of NF-κB by LPS, lipid A, lipoproteins or the purified PGNs in cells over-expressing Nod1 were carried out as described by Inohara et al. (9). Briefly, HEK293 cells were transfected overnight with 10 ng of Nod 1. At the same time, the LPS, lipoproteins or peptidoglycan preparations were added and the NF-κB-dependent luciferase activation was then measured following 24 h of co-incubation.
(§2) NF-κB-dependent luciferase assays were performed in duplicate and data represent at least 3 independent experiments.

Nod2 [2] = biological target: T2, Nod2 (Homo sapiens, UniProt Q9HC29); assay: Nod2-dependent activation of NF-κB; assay type: cell-based; conditions: 10 ng (FIG. 2d)
T2 construct: expressed in transfected cells
Description: as §1, §2
(§3) In FIG. 2a, PGN muropeptides from N. meningitides were separated by reverse-phase HPLC and subsequently analysed by mass spectroscopy (see supporting on-line text). […] In FIG. 2d, equivalent amounts (10 ng) of GM-dipeptide (GM-di; synthetic source), GM-tripeptide (GMtri), or GM-tetrapeptide (GM-tetra) were tested for stimulation of Nod 1-, Nod2- or TLR2-dependent activation of NF-κB. […] Buff, buffer diluent of the muropeptides.

macrophages = assay: Activation of macrophages; assay type: cell-based
Nod1 [3] = biological target: T1, Nod1; assay: Nod1-dependent IL-8 production in HeLa epithelial cells (ELISA); assay type: cell-based; set-up: expressed in transfected cells; conditions: HeLa cells transfected with 10 ng Nod1; 18 h; IL-1 at 10 ng/ml (FIG. 2f)
Description: To measure Nod1-dependent IL-8 produced in epithelial cells by muropeptides, 5×10^5HeLa cells were seeded into each well of a twelve well plate and transfected the following day with 10 ng Nod1 plus the individual muropeptides (as described above) or treated with IL-1 as a positive control. Eighteen hours later, supernatants were collected and assayed for IL-8 as previously described (10) using an ELISA kit (R and D Systems).
as §3

[4] = tested on: NF-κB p65 in intestinal epithelial cells from Nod1-deficient mice; assay: NF-κB p65 nuclear translocation in intestinal epithelial cells from Nod1-deficient mice; assay type: cell-based; conditions: microinjection of supernatants; TNFα 10 ng/ml
Nod2 [5] = biological target: T2, Nod2; conditions: cited from earlier work

T2 sequence (Q9HC29 whole entry): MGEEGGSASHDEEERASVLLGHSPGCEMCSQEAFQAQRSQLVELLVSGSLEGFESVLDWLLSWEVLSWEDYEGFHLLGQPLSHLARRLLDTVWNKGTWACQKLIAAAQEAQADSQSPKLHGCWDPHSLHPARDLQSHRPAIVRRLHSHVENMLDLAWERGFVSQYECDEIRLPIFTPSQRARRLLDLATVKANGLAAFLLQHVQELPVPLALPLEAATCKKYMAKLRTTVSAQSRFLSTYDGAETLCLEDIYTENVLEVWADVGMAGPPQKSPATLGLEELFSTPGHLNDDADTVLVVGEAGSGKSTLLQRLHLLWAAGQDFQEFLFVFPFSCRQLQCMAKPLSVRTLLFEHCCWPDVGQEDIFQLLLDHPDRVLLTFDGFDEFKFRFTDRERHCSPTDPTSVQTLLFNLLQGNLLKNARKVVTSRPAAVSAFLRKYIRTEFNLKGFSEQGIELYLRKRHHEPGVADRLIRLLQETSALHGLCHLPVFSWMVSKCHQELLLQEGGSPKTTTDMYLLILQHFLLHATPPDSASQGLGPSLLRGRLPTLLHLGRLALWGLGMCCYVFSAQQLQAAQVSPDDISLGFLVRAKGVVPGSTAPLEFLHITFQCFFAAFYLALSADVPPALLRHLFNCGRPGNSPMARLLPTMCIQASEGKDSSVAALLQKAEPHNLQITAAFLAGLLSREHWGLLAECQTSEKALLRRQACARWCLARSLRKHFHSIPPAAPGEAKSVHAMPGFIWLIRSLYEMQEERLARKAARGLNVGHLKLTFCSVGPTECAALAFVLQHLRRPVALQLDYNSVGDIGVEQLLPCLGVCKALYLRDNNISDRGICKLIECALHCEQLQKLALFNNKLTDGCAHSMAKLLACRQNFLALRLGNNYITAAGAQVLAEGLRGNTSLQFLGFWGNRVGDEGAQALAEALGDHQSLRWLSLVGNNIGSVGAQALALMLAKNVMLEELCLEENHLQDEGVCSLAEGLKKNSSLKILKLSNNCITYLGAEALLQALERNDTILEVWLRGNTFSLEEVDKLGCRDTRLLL

- detection by Nod1 (Nod1 [1]): detects
Molecule: CC(=O)N[C@H]1[C@@H](OP(=O)(O)OP(=O)(O)OC[C@H]2O[C@@H](n3ccc(=O)[nH]c3=O)[C@H](O)[C@@H]2O)O[C@H](CO)[C@@H](O)[C@@H]1O[C@H](C)C(=O)N[C@@H](C)C(=O)N[C@H](CCC(=O)N[C@@H](CCC[C@@H](N)C(=O)O)C(=O)O)C(=O)O [UDP-MurTriDAP]

- Nod2-dependent activation of NF-κB by muropeptides (Nod2 [2]): detects
Molecule: CC(=O)N[C@H]1[C@H](O[C@H]2[C@H](O[C@H](C)C(=O)N[C@@H](C)C(=O)N[C@H](CCC(=O)O)C(N)=O)[C@@H](NC(C)=O)C(O)O[C@@H]2CO)O[C@H](CO)[C@@H](O)[C@@H]1O (stereo partly drawn) [GM-dipeptide]

Molecule: Lpp: the most abundant lipoprotein in E. coli (lipidated)
- stimulation of the Nod1 pathway (NF-κB activation) (Nod1 [1]): not possible to stimulate the Nod1 pathway

- stimulation of the Nod1 pathway (NF-κB activation) (Nod1 [1]): could not stimulate the Nod1 pathway
Molecule: lipid A [reference compound]
- activation of macrophages (macrophages): could efficiently activate macrophages

Molecule: GlcNAc-MurNAc-L-Ala-D-Glu-mesoDAP(GlcNAc-MurNAc-L-Ala-D-Glu-mesoDAP-D-Ala)-D-Ala [dimeric GM-tetrapeptide, reference compound]
- stimulation of the Nod1 pathway by HPLC fractions of N. meningitidis PGN muropeptides (Nod1 [1]): does not activate Nod1

Molecule: GlcNAc-MurNAc-L-Ala-D-Glu-mesoDAP [GM-tripeptide]
- production of IL-8 (Nod1 [3]): production of the pro-inflammatory chemokine, IL-8
- Nod1-dependent activation of NF-κB by muropeptides (Nod1 [1]): specifically detects
- stimulation of the Nod1 pathway by HPLC fractions of N. meningitidis PGN muropeptides (Nod1 [1]): activates Nod1
- detection by Nod1 (Nod1 [1]): detects

Molecule: GlcNAc-anhydro-MurNAc-L-Ala-D-GlumesoDAP [anhydrous GM-tripeptide]
- stimulation of the Nod1 pathway by HPLC fractions of N. meningitidis PGN muropeptides (Nod1 [1]): activates Nod1

Molecule: GlcNAc-MurNAc-L-Ala-D-Glu-mesoDAP-DAla [GM-tetrapeptide]
- Nod1-dependent activation of NF-κB by muropeptides (Nod1 [1]): not sensed

Molecule: TNFα
- NF-κB nuclear translocation in Nod1-deficient cells [4]: can efficiently stimulate NF-κB nuclear translocation

Molecule: CC(=O)N[C@H]1C(O)O[C@H](CO)[C@@H](O)[C@@H]1O[C@H](C)C(=O)N[C@@H](C)C(=O)N[C@H](CCC(=O)O)C(N)=O (mixture of isomers) [M-dipeptide, muramyl dipeptide]
- recognition by Nod2 (previous findings) (Nod2 [5]): recognizes

Molecule: Pam3Cys-Ser-Lys4-OH [synthetic lipopeptide, reference compound]
- stimulation of the Nod1 pathway (NF-κB activation) (Nod1 [1]): not possible to stimulate the Nod1 pathway

- detection by Nod1 (Nod1 [1]): detects
Molecule: CC(=O)NC1C(O)OC(CO)C(O)C1OC(C)C(=O)NC(C)C(=O)NC(CCC(=O)NC(CCCC(N)C(=O)O)C(=O)O)C(=O)O (stereo not drawn) [MurTriDAP]

Molecule: C[C@H](N)C(=O)N[C@H](CCC(=O)NC(CCCC(N)C(=O)O)C(=O)O)C(=O)O (stereo partly drawn) [tripeptide L-Ala-D-Glu-mesoDAP, L-Ala-D-Glu-mesoDAP]
- detection by Nod1 (Nod1 [1]): able to sense
- detection by Nod1 (Nod1 [1]; listed as TriDAP): detects
